The values below are quoted from earlier work in patent EP1886664A1, “N-chloroamines containing compositions” (priority 2006, dated 2008).

Where two headings read alike, the source gives them in different places. Some results are limits rather than exact numbers.

The conditions of data set [1]: according to Buckley.
For data set [2], the system named is Eye.
In data set [3] the test system is mouse. The note with it: inhalation, 4 hours, maximum reached concentration.
Data set [4] has as its system mouse. The following applies: after 90 days.
Data set [5] deals with bacterial flora in the oral cavity.
Data set [6] concerns Bacteria, Viruses, Fungi, Seaweed, Yeasts, Parasite.
In data set [7] the test system is Skin. The following applies: solution under 8%.
The test system of data set [8] is microbacteria.

For `Cc1ccc(S(=O)(=O)NCl)cc1` [T-chloramine, sodium N-chloro-para-toluenesulfamide], the “antiseptic power compared to hypochlorites” value in data set [1] is on record as “four times higher than that of hypochlorites”. For the same compound, the “activity compared to Dakin's liquid” value in [1] (in the presence of blood) is on record as “more active than the Dakin's liquid”. Also, the “Irritation, Eye” value in data set [2] (Solution under 0.5%) is “not irritating”; in data set [2] (solution under 8%) it was “moderately irritating”. For the same compound, in data set [3], the “LC 50” value is over 0.275 µg/mL. In addition, the “oral toxicity, level at which nothing was observed” value in data set [4] is reported as 15 mg/kg/day. Also, in [5] (in vivo), the “duration of antiseptic action when applied as a therapeutics” value was 24 h. Moreover, the “duration of strong sustainable effect after application” value in [5] (mouthrinse) is recorded as “at least one”. Besides, the biocide action result in [6] (including viruses and microbacteria in the vegetative form either spori or not) is “biocide action against all forms of microorganisms”. Also, in data set [6] (organisms listed in the 1st table, the 2nd table and b31), the activity against microorganisms entry is listed as “active”. Further, in [7], the “Irritation, Skin” value is given as “not irritating”. Also, for the setting “ambient with organic matter and microorganisms, after 24 hours”, the fraction still active result is given as “approximately half”. In addition, the “activity lost due to decomposition” value (solution under 5%, opaque container, 25°C, 210 days) is “less than 0.05%”. Moreover, under “solutions under 0.5%, 30 days, 40°C”, the decomposed is given as 0.01%.

Consider `N=C(NCCCCCCNC(=N)NC(=N)Nc1ccc(Cl)cc1)NC(=N)Nc1ccc(Cl)cc1` [chlorexidine], for which the “sporicide, viruscide and microbacteria activity” value in data set [8] is “neither a sporicide, neither a viruscide and nor active against microbacteria”.
